Assay results as given in ChEMBL document CHEMBL3885881, “DrugMatrix”.

Organism: Rattus norvegicus
Assay: DrugMatrix - Regimen: Daily Repeat
Format: toxicity, organism-based, Sprague-Dawley
Set-up: regimen Daily Repeat, gender Male, age 6-8 weeks
Details: in vivo, po, 38 mg/kg, route oral GAVAGE, dose level Low, vehicle 100 % WATER; for BASOPHIL / EOSINOPHIL / ERYTHROCYTE COUNT / HEMATOCRIT / HEMOGLOBIN / LEUKOCYTE COUNT / LYMPHOCYTE / MEAN CORPUSCULAR HEMOGLOBIN / MEAN CORPUSCULAR HEMOGLOBIN CONCENTRATION / MEAN CORPUSCULAR VOLUME / MONOCYTE / NEUTROPHIL / PLATELET COUNT: tissue Blood; for ALANINE AMINOTRANSFERASE / ALBUMIN / ALKALINE PHOSPHATASE / ASPARTATE AMINOTRANSFERASE / BLOOD UREA NITROGEN / CARBON DIOXIDE / CHLORIDE / CHOLESTEROL / CREATINE PHOSPHOKINASE / CREATININE / GLUCOSE / LACTATE DEHYDROGENASE / LIPASE / PHOSPHORUS / POTASSIUM / SODIUM / TOTAL BILIRUBIN / TOTAL PROTEIN / URIC ACID: tissue Plasma

`O=C(O)C1CC1` [CYCLOPROPANE CARBOXYLIC ACID] was tested, and the BASOPHIL (72 h, time 3 day) was 0%, the EOSINOPHIL (72 h, time 3 day) was 0.67% and the “ERYTHROCYTE COUNT” value (72 h, time 3 day) was 7.06 x10E6/uL. The HEMATOCRIT (72 h, time 3 day) was 43.67%, the HEMOGLOBIN (72 h, time 3 day) was 14.6 G/DL and the “LEUKOCYTE COUNT” value (72 h, time 3 day) was 8.63 x10E3/uL. For the same molecule, the LYMPHOCYTE (72 h, time 3 day) was 83.67%, the “MEAN CORPUSCULAR HEMOGLOBIN” value (72 h, time 3 day) was 20.67 pg and the “MEAN CORPUSCULAR HEMOGLOBIN CONCENTRATION” value (72 h, time 3 day) was 33.47 G/DL. For the same molecule, the “MEAN CORPUSCULAR VOLUME” value (72 h, time 3 day) was 61.77 fL, the MONOCYTE (72 h, time 3 day) was 2.33% and the NEUTROPHIL (72 h, time 3 day) was 13.33%. The “PLATELET COUNT” value (72 h, time 3 day) was 1012 x10E3/uL, the “ALANINE AMINOTRANSFERASE” value (72 h, time 3 day) was 44.67 u/L and the ALBUMIN (72 h, time 3 day) was 4.37 G/DL. For the same molecule, the “ALKALINE PHOSPHATASE” value (72 h, time 3 day) was 346.67 u/L, the “ASPARTATE AMINOTRANSFERASE” value (72 h, time 3 day) was 72.33 u/L and the “BLOOD UREA NITROGEN” value (72 h, time 3 day) was 15 mg/dL. The “CARBON DIOXIDE” value (72 h, time 3 day) was 23 mmol/L, the CHLORIDE (72 h, time 3 day) was 103.67 MEQ/L and the CHOLESTEROL (72 h, time 3 day) was 65.67 mg/dL. For the same molecule, the “CREATINE PHOSPHOKINASE” value (72 h, time 3 day) was 241.33 u/L, the CREATININE (72 h, time 3 day) was 0.3 mg/dL and the GLUCOSE (72 h, time 3 day) was 151 mg/dL. The “LACTATE DEHYDROGENASE” value (72 h, time 3 day) was 152.33 u/L, the LIPASE (72 h, time 3 day) was 9 u/L and the PHOSPHORUS (72 h, time 3 day) was 9.83 mg/dL. The POTASSIUM (72 h, time 3 day) was 5.7 MEQ/L, the SODIUM (72 h, time 3 day) was 145.67 MEQ/L and the “TOTAL BILIRUBIN” value (72 h, time 3 day) was 0.1 mg/dL. For the same molecule, the “TOTAL PROTEIN” value (72 h, time 3 day) was 6.03 G/DL, the “URIC ACID” value (72 h, time 3 day) was 1.1 mg/dL and the BASOPHIL (120 h, time 5 day) was 0.33%. For the same molecule, the EOSINOPHIL (120 h, time 5 day) was 1%, the “ERYTHROCYTE COUNT” value (120 h, time 5 day) was 7.12 x10E6/uL and the HEMATOCRIT (120 h, time 5 day) was 44.63%. The HEMOGLOBIN (120 h, time 5 day) was 14.4 G/DL, the “LEUKOCYTE COUNT” value (120 h, time 5 day) was 10.9 x10E3/uL and the LYMPHOCYTE (120 h, time 5 day) was 85%. The “MEAN CORPUSCULAR HEMOGLOBIN” value (120 h, time 5 day) was 20.2 pg, the “MEAN CORPUSCULAR HEMOGLOBIN CONCENTRATION” value (120 h, time 5 day) was 32.27 G/DL and the “MEAN CORPUSCULAR VOLUME” value (120 h, time 5 day) was 62.67 fL. The MONOCYTE (120 h, time 5 day) was 2.33%, the NEUTROPHIL (120 h, time 5 day) was 12.33% and the “PLATELET COUNT” value (120 h, time 5 day) was 970.67 x10E3/uL. The “ALANINE AMINOTRANSFERASE” value (120 h, time 5 day) was 47.33 u/L, the ALBUMIN (120 h, time 5 day) was 4.6 G/DL and the “ALKALINE PHOSPHATASE” value (120 h, time 5 day) was 373.67 u/L. For the same molecule, the “ASPARTATE AMINOTRANSFERASE” value (120 h, time 5 day) was 86 u/L, the “BLOOD UREA NITROGEN” value (120 h, time 5 day) was 17.33 mg/dL and the “CARBON DIOXIDE” value (120 h, time 5 day) was 20.67 mmol/L. The CHLORIDE (120 h, time 5 day) was 99.33 MEQ/L, the CHOLESTEROL (120 h, time 5 day) was 73.67 mg/dL and the “CREATINE PHOSPHOKINASE” value (120 h, time 5 day) was 418 u/L. For the same molecule, the CREATININE (120 h, time 5 day) was 0.3 mg/dL, the GLUCOSE (120 h, time 5 day) was 133.33 mg/dL and the “LACTATE DEHYDROGENASE” value (120 h, time 5 day) was 454 u/L. For the same molecule, the LIPASE (120 h, time 5 day) was 9 u/L, the PHOSPHORUS (120 h, time 5 day) was 10.13 mg/dL and the POTASSIUM (120 h, time 5 day) was 5.37 MEQ/L. For the same molecule, the SODIUM (120 h, time 5 day) was 143.33 MEQ/L, the “TOTAL BILIRUBIN” value (120 h, time 5 day) was 0.1 mg/dL and the “TOTAL PROTEIN” value (120 h, time 5 day) was 6.53 G/DL. The “URIC ACID” value (120 h, time 5 day) was 1.03 mg/dL.
